Experimental data from the supplement of paper PMC13380429.

What was measured:
A549-ACE2 [1] = experiment: phospholipidosis EC50; higher = less potent phospholipidosis inducer
U2OS [2] = experiment: cell viability relative to DMSO; higher = less toxic; details: 72 h
Vero E6 [3] = experiment: as above; details: 72 h
Calu-3 [4] = experiment: as above; details: 72 h
Caco-2 [5] = experiment: as above; details: 72 h
HepG2 [6] = experiment: as above; details: 72 h
[7] = test system: A549-ACE2 infected with SARS-CoV-2; experiment: morphology score (similarity to uninfected cells); higher = more like uninfected cells; details: 24 h
[8] = test system: A549-ACE2 infected with SARS-CoV-2; experiment: cell count relative to DMSO; higher = less toxic; details: 24 h
A549-ACE2 [9] = experiment: drug-induced phospholipidosis relative to tamoxifen; higher = more phospholipidosis
[10] = test system: A549-ACE2 infected with SARS-CoV-2; experiment: SARS-CoV-2 infection rate relative to DMSO; higher = more infection; details: 24 h
U2OS [11] = experiment: drug sensitivity score (DSS) for viability; higher = more toxic; extreme values may be limits of the assay; details: 72 h
Vero E6 [12] = experiment: as above; details: 72 h
Calu-3 [13] = experiment: as above; details: 72 h
Caco-2 [14] = experiment: as above; details: 72 h
HepG2 [15] = experiment: as above; details: 72 h
Calu-3 [16] = experiment: relative viability EC50 (midpoint between 100% and the lowest measured viability); higher = less toxic; details: 72 h
HepG2 [17] = experiment: as above; details: 72 h
U2OS [18] = experiment: as above; details: 72 h
Vero E6 [19] = experiment: as above; details: 72 h
Caco-2 [20] = experiment: as above; details: 72 h

CSc1ccc2c(c1)N(CCC1CCCCN1C)c1ccccc1S2 (configuration not stated) [thioridazine]
Details	SARS-CoV-2 infection rate [%]	cell count [%]	cell viability [%]	morphology score	phospholipidosis EC50 [µM]
A549-ACE2 [1], 24 h	–	–	–	–	3.21
A549-ACE2 [1], 48 h	–	–	–	–	4.53
A549-ACE2 [1], 72 h	–	–	–	–	5.9
Caco-2 [5], 1 nM	–	–	110	–	–
Caco-2 [5], 10 nM	–	–	100	–	–
Caco-2 [5], 100 nM	–	–	105	–	–
Caco-2 [5], 1000 nM	–	–	105	–	–
Caco-2 [5], 10000 nM	–	–	69.5	–	–
Calu-3 [4], 1 nM	–	–	104	–	–
Calu-3 [4], 10 nM	–	–	110	–	–
Calu-3 [4], 100 nM	–	–	96.8	–	–
Calu-3 [4], 1000 nM	–	–	96.2	–	–
Calu-3 [4], 10000 nM	–	–	31.4	–	–
HepG2 [6], 1 nM	–	–	105	–	–
HepG2 [6], 10 nM	–	–	110	–	–
HepG2 [6], 100 nM	–	–	104	–	–
HepG2 [6], 1000 nM	–	–	102	–	–
HepG2 [6], 10000 nM	–	–	44.5	–	–
U2OS [2], 1 nM	–	–	105	–	–
U2OS [2], 10 nM	–	–	103	–	–
U2OS [2], 100 nM	–	–	102	–	–
U2OS [2], 1000 nM	–	–	103	–	–
U2OS [2], 10000 nM	–	–	74.7	–	–
Vero E6 [3], 1 nM	–	–	106	–	–
Vero E6 [3], 10 nM	–	–	103	–	–
Vero E6 [3], 100 nM	–	–	104	–	–
Vero E6 [3], 1000 nM	–	–	102	–	–
Vero E6 [3], 10000 nM	–	–	69.7	–	–
[7], 0.1 µM	–	–	–	0.31	–
[7], 0.3 µM	–	–	–	0.1	–
[7], 1 µM	–	–	–	0.34	–
[7], 3 µM	–	–	–	0.84	–
[8], 0.1 µM	–	106	–	–	–
[8], 0.3 µM	–	104	–	–	–
[8], 1 µM	–	110	–	–	–
[8], 3 µM	–	121	–	–	–
[10], 0.1 µM	94	–	–	–	–
[10], 0.3 µM	101	–	–	–	–
[10], 1 µM	82	–	–	–	–
[10], 3 µM	21	–	–	–	–

drug-induced phospholipidosis [%], A549-ACE2 [9]
Details	0.3 µM	0.833333 µM	3.33333 µM	6.66667 µM	10 µM	30 µM
24 h	14.9	4.83	47.8	79.3	86	44.9
48 h	9.22	4.87	28.5	86.4	99.3	–
72 h	7.14	2.71	20	83.7	117	–

Details	drug sensitivity score	relative viability EC50 [µM]
Caco-2 [14]	1.1	–
Calu-3 [13]	4.3	–
Calu-3 [16]	–	2.72
HepG2 [15]	2.8	–
HepG2 [17]	–	3.36
U2OS [11]	0.8	–
Vero E6 [12]	1.2	–

CCN(CC)CCOc1ccc2c(c1)C(=O)c1cc(OCCN(CC)CC)ccc1-2 [tilorone]
Details	SARS-CoV-2 infection rate, [10] [%]	cell count, [8] [%]	cell viability, Caco-2 [5] [%]	cell viability, Calu-3 [4] [%]	cell viability, HepG2 [6] [%]	cell viability, U2OS [2] [%]	cell viability, Vero E6 [3] [%]	morphology score, [7]
1 nM	–	–	102	103	98.4	103	106	–
10 nM	–	–	102	101	93.2	104	104	–
100 nM	–	–	97.1	95.7	91.3	100	97.5	–
0.1 µM	88	102	–	–	–	–	–	0.26
0.3 µM	84	106	–	–	–	–	–	0.37
1000 nM	–	–	95	96.6	96.8	95.9	100	–
1 µM	77	102	–	–	–	–	–	0.45
3 µM	46	108	–	–	–	–	–	0.5
10000 nM	–	–	78.4	78.8	15.8	98.9	35.2	–

drug-induced phospholipidosis [%], A549-ACE2 [9]
Details	0.3 µM	0.833333 µM	3.33333 µM	6.66667 µM	10 µM	30 µM
24 h	-3.79	-6.82	-21.7	-22.6	-23.9	-27.5
48 h	2.58	-4.68	-11.7	-11.1	-10	-8.85
72 h	3.61	-1.19	-2.58	0.944	-0.898	–

Details	drug sensitivity score	relative viability EC50 [µM]
Caco-2 [14]	1.3	–
Caco-2 [20]	–	> 10
Calu-3 [13]	1.2	–
Calu-3 [16]	–	> 10
HepG2 [15]	5.1	–
HepG2 [17]	–	2.87
U2OS [11]	0	–
U2OS [18]	–	> 10
Vero E6 [12]	3.5	–
Vero E6 [19]	–	3.19
